Values after ≈ are worked out from the molar mass of the structure shown.
Columns and labels:
[1] = tested on: Bone marrow cells from CBA mice; experiment: Bone marrow cell proliferation (BM) assay; type: cell-based; conditions: Mus musculus, 3H-thymidine incorporation, four days incubation
Experimental: Bone marrow cells from CBA mice (2.5×10^4 cells per well in flat bottom tissue culture microtiter plates) were incubated in 100 μL RPMI medium containing 10% FCS, 100 U/mL penicillin, 100 μg/mL streptomycin (Gibco BRL, Basel Switzerland), 50 μM 2-mercaptoethanol (Fluka, Buchs, Switzerland), WEHI-3 conditioned medium (7.5% v/v) and L929 conditioned medium (3% v/v) as a source of growth factors and serially diluted compounds. Seven three-fold dilution steps in duplicates per test compounds were performed. After four days of incubation 1 μCi ^3H-thymidine was added. Cells were harvested after an additional five-hour incubation period, and incorporated ^3H-thymidine was determined according to standard procedures. Conditioned media were prepared as follows. WEHI-3 cells (ATCC TIB68) and L929 cells (ATCC CCL 1) were grown in RPMI medium until confluence for 4 days and one week, respectively. Cells were harvested, resuspended in the same culture flasks in medium C containing 1% FCS (Schreier and Tess 1981) for WEHI-3 cells and RPMI medium for L929 cells and incubated for 2 days (WEHI-3) or one week (L929). The supernatant was collected, filtered through 0.2 μm and stored in aliquots at −80° C. Cultures without test compounds and without WEHI-3 and L929 supernatants were used as low control values. Low control values were subtracted from all values. […]

[2] = Blood levels and pharmacokinetics after oral administration of compound of example No. 1; type: in vivo, Beagle dogs; conditions: example 3 main component in blood after around an hour
Experimental: A single dose of the compound of example 1 (3.0 mg/kg) was administered p.o. to 3 male Beagle dogs. Compound 1 was dosed as an aqueous suspension of the crystalline monohydrate form in Methylcellulose (0.5%): Tween 80 (1%) (90:10). Blood was taken in regular intervals by venipuncture, and the samples were analyzed for a period of up to 24 hours. The compounds of the examples 1, 2, and 3 were quantitatively assessed over time, and the results are tabulated below:
Key pharmacokinetic parameters (mean values±standard deviations (n=3) for 1, 2 and 3 after oral dosing of example No. 1.

[3] = Solubility in simulated gastric and intestinal fluids; type: physicochemical; conditions: for Final pH: solubility test
Excerpt: Solubility of compound Example No. 1 in simulated gastric and in simulated intestinal fluids at room temperature
Solubility of compound Example No. 3 (free form/acetate salt form) in simulated gastric fluids: […]

[4] = Chemical stability of amorphous and crystalline example No. 1 (solid state); type: physicochemical; conditions: for Purity: 1 week; for Initial Purity: before exposure
[5] = Chemical stability of the trihydrate of example 1; type: physicochemical
[6] = Physical stability: equilibration of suspension, XRPD of isolated solid; type: physicochemical; conditions: based upon the equilibration experiments
Experimental: Samples of example 1 free base which are a mixture of monohydrate and trihydrate were suspended in an organic solvent water mixture of water and equilibrated for about 4 days at 25°. […] After equilibration the suspension was filtered and the solid material isolated and analysed by XRPD.

In the case of `Cc1cccc2c(C3=C(c4nc(N5CCNC6(CC6)C5)cc5ccccc45)C(=O)N(COP(=O)(O)O)C3=O)c[nH]c12` [Example 1, Phosphoric acid mono-[3-[3-(4,7-diaza-spiro[2.5]oct-7-yl)-isoquinolin-1-yl]-4-(7-methyl-1H-indol-3-yl)-2,5-dioxo-2,5-dihydro-pyrrol-1-ylmethyl]ester], the IC50 [1] is reported as 6740 ± 1120 nM, the “conversion of prodrug into parent compound in blood” value [2] is reported as “effective and favorable conversion into a parent compound” and the solubility ([3]; Fasted state simulated intestinal fluid (FaSSIF) pH 6.5, room temperature) is reported as 100 µg/mL (≈ 174 µM). The solubility ([3]; Fed state simulated intestinal fluid (FeSSIF) pH 5.8, room temperature) was 130 µg/mL (≈ 227 µM), the solubility ([3]; Simulated gastric fluid (SGF) pH 2, room temperature) was 40 µg/mL (≈ 69.7 µM) and the “Final pH” value ([3]; FaSSIF pH 6.5) was 6.59. For the same molecule, the “Final pH” value ([3]; FeSSIF pH 5.8) was 6.05, the “Final pH” value ([3]; SGF pH 2) was 2.22 and the Purity ([4]; Amorphous, 50 ° C.) was 95.8%. The Purity ([4]; Amorphous, 80 ° C.) was 89.7%, the “Initial Purity” value ([4]; Amorphous) was 98.5% and the Purity ([4]; Crystalline monohydrate, 50 ° C.) was 100%. For the same molecule, the Purity ([4]; Crystalline monohydrate, 80 ° C.) was 100%, the “Initial Purity” value ([4]; Crystalline monohydrate) was 100% and the “Purity of example 1 in %” value ([5]; 2 weeks 50° C.) was 95.57%. For the same molecule, the “Sum of related. Substances in area %” value ([5]; 2 weeks 50° C.) was 4.52 area %, the “Purity of example 1 in %” value ([5]; 2 weeks 50° C./75% RH) was 96.20% and the “Sum of related. Substances in area %” value ([5]; 2 weeks 50° C./75% RH) was 3.66 area %. The “Purity of example 1 in %” value ([5]; initial) was 98.06% and the “Sum of related. Substances in area %” value ([5]; initial) was 1.64 area %.
With `Cc1cccc2c(C3=C(c4nc(N5CCNC6(CC6)C5)cc5ccccc45)C(=O)NC3=O)c[nH]c12` [Example 3, 3-[3-(4,7-diaza-spiro[2.5]oct-7-yl)-isoquinolin-1-yl]-4-(7-methyl-1H-indol-3-yl)-pyrrole-2,5-dione] the IC50 [1] was 1670 ± 256 nM, the “Final pH” value ([3]; Acetate Salt, FaSSIF pH 6.5) was 3.97 and the “Final pH” value ([3]; Acetate Salt, FeSSIF pH 5.8) was 6.5. For the same molecule, the “Final pH” value ([3]; Acetate Salt, SGF pH 2) was 5.45, the solubility ([3]; fasted state simulated intestinal fluid (FaSSIF), Acetate Salt, FaSSIF pH 6.5) was 50 µg/mL and the solubility ([3]; fed state simulated intestinal fluid (FeSSIF), Acetate Salt, FeSSIF pH 5.8) was 550 µg/mL. The solubility ([3]; simulated gastric fluid (SGF), simulated gastric fluid, Acetate Salt, SGF pH 2) was 150 µg/mL.
For `Cc1cccc2c(C3=C(c4nc(N5CCNC6(CC6)C5)cc5ccccc45)C(=O)N(COP(=O)(O)O)C3=O)c[nH]c12.O.O.O` [trihydrate of example 1, phosphoric acid mono-[3-[3-(4,7-diaza-spiro[2.5]oct-7-yl)-isoquinolin-1-yl]-4-(7-methyl-1H-indol-3-yl)-2,5-dioxo-2,5-dihydro-pyrrol-1-ylmethyl]ester, trihydrate], the “relative thermodynamic stability of hydrate forms” value [6] was “thermodynamically more stable than the monohydrate”.

Source: patent publication US20150284364A1, “SUBSTITUTED INDOLE DERIVATIVES” (priority 2012, published 2015)
